Reference: patent US10795272B2, “Triphenylamine derivative, and charge transport material and electrophotographic photoreceptor using the same” (TAKASAGO INTERNATIONAL CORPORATION, priority 2016, dated 2020)

Experiments:
[1] = Solubility in tetrahydrofuran; type: physicochemical; details: 25° C.; weight completely dissolved in 1 g of tetrahydrofuran
Experimental: Compound (1-1) was dissolved in 1 g of tetrahydrofuran at 25° C.
In the same manner as in Example 14, experiments were conducted by using Compound (1-4) or (1-9).
In the same manner as in Example 14, experiments were conducted by using Comparative Compound (5) which was a compound described in Japanese Patent Application Publication No. Hei 3-149560.

melting point	Solubility [1]	SMILES
178 to 180 °C	0.16 g/g tetrahydrofuran	Cc1ccc(N(c2ccc(/C=C/c3ccc(/C=C/C=C(c4ccccc4)c4ccccc4)cc3)cc2)c2ccc(/C=C/c3ccc(/C=C/c4ccc(N(c5ccc(C)cc5)c5ccc(/C=C/c6ccc(/C=C/C=C(c7ccccc7)c7ccccc7)cc6)cc5)cc4)cc3)cc2)cc1 [Compound (1-1)]
162 to 164 °C	0.13 g/g tetrahydrofuran	C(/C=C/c1ccc(/C=C/c2ccc(N(c3ccccc3)c3ccc(/C=C/c4ccc(/C=C/c5ccc(N(c6ccccc6)c6ccc(/C=C/c7ccc(/C=C/C=C(c8ccccc8)c8ccccc8)cc7)cc6)cc5)cc4)cc3)cc2)cc1)=C(c1ccccc1)c1ccccc1 [Compound (1-4)]
255 to 257 °C		Cc1ccc(C(=C/C=C/c2ccc(/C=C/c3ccc(N(c4ccc(/C=C/c5ccc(/C=C/c6ccc(N(c7ccc(/C=C/c8ccc(/C=C/C=C(c9ccc(C)cc9)c9ccc(C)cc9)cc8)cc7)c7ccc(C)cc7C)cc6)cc5)cc4)c4ccc(C)cc4C)cc3)cc2)c2ccc(C)cc2)cc1 [Compound (1-17)]
	0.03 g/g tetrahydrofuran	C(=Cc1ccc(N(c2ccccc2)c2ccc(C=C(c3ccccc3)c3ccccc3)cc2)cc1)c1ccc(C=Cc2ccc(N(c3ccccc3)c3ccc(C=C(c4ccccc4)c4ccccc4)cc3)cc2)cc1 [Comparative Compound (5), reference compound]
222 to 224 °C	0.14 g/g tetrahydrofuran	COc1ccc(N(c2ccc(/C=C/c3ccc(/C=C/C=C(c4ccccc4)c4ccccc4)cc3)cc2)c2ccc(/C=C/c3ccc(/C=C/c4ccc(N(c5ccc(/C=C/c6ccc(/C=C/C=C(c7ccccc7)c7ccccc7)cc6)cc5)c5ccc(OC)cc5)cc4)cc3)cc2)cc1 [Compound (1-9)]
161 to 163 °C		Cc1ccc(N(c2ccc(/C=C/c3ccc(/C=C/C=C(c4ccccc4)c4ccccc4)cc3)cc2)c2ccc(/C=C/c3ccc(/C=C/c4ccc(N(c5ccc(/C=C/c6ccc(/C=C/C=C(c7ccccc7)c7ccccc7)cc6)cc5)c5ccc(C)cc5C)cc4)cc3)cc2)c(C)c1 [Compound (1-7)]
